Consider 26 compounds from BindingDB's records for doi:10.7270/Q2M32T6M (Vanderbilt Screening Center for GPCRs, Ion Channels and …, 2009).

Structures are written as SMILES.

In the first assay the target is T1, Solute carrier family 12 member 5 (Homo sapiens, UniProt Q9H2X9).
T1 sequence (Q9H2X9 whole entry): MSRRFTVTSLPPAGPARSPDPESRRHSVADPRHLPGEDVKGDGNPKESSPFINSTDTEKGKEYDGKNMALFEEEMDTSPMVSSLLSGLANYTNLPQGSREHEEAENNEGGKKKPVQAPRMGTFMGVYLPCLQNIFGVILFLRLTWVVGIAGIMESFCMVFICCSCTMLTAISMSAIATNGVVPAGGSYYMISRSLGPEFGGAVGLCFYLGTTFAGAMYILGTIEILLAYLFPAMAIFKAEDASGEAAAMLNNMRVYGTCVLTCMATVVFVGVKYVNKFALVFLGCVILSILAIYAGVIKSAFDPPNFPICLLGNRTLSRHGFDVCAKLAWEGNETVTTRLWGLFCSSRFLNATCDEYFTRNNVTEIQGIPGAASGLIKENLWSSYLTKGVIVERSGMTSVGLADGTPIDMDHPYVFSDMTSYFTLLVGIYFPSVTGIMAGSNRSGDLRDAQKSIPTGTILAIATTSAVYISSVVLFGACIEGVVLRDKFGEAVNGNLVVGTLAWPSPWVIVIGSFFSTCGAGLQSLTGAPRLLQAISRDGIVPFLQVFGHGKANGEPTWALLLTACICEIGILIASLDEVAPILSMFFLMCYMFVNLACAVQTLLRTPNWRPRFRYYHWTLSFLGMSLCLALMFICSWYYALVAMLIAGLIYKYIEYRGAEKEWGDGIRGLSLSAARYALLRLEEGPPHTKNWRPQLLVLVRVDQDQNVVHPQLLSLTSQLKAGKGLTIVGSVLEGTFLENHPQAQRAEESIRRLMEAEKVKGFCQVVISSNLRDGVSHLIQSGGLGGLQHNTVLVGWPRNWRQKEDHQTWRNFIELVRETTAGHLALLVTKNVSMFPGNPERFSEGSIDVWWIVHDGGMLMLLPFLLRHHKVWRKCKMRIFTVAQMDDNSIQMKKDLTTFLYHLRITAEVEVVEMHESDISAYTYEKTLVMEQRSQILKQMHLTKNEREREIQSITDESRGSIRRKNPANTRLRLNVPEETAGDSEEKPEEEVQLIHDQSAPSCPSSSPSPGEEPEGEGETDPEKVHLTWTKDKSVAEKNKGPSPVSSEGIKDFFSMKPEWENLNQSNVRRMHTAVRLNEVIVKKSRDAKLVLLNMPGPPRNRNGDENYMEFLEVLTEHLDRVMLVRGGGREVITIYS
The assay is described as follows: concentration-response of KCC2 transport modulators – cell-based, HEK293 KCC2, FluoZin-2 fluorescence, dose response (AID 1736).
Details: not given
Compound `CCc1cc(C(=O)N2CCCC(CNC(=O)c3ccc(-c4ccccc4)cc3)C2)no1` (stereo unspecified) [MLS000731765] displayed a 50% effective concentration (EC50) of 3 µM.

Consider `CC(=O)NCCC(=O)N1CCCC(CNC(=O)c2ccc(-c3ccccc3)cc2)C1` (stereo unspecified) [MLS000733794], for which a half-maximal response (EC50) required 38.4 µM. Same read-out and setting: as for `CSCCC(=O)N1CCCC(CNC(=O)c2ccc(-c3ccccc3)cc2)C1` (stereo unspecified) [MLS000733867], the figure is 21 µM. Compound `O=C(NNc1nc(-c2ccc(F)cc2)cs1)c1ccccc1` [MLS000763429] displayed an EC50 of 0.928 µM.

For the compound `O=C(NNc1nc(-c2ccccc2)cs1)c1cccs1` [MLS000858987], the EC50 came out at 0.189 µM. `CCC(CC)NC(=O)CSc1nnc(-c2c[nH]c3ccccc23)o1` [MLS001017505]: the response was half-maximal at 2.04 µM (EC50).

With `CNc1ccc2oc(C[C@H]3O[C@@]4(CC[C@H]3C)O[C@H]([C@H](C)C(=O)c3ccc[nH]3)[C@H](C)C[C@H]4C)nc2c1C(=O)O` [MLS001056783], the 50% effective concentration (EC50) was found to be 9.96 µM. In turn, `COc1ccc(N(CC(=O)Nc2cccc(C)c2C)S(=O)(=O)c2c(C)n[nH]c2C)cc1` [N-(2,3-dimethylphenyl)-2-[(3,5-dimethyl-1H-pyrazol-4-yl)sulfonyl-(4-methoxyphenyl)amino]ethanamide] returned an EC50 of 38.6 µM.

As for `CC(=NNC(=O)c1ccc(Cl)c(Cl)c1)c1ccc(Br)s1` [N-[1-(5-bromo-2-thiophenyl)ethylideneamino]-3,4-dichlorobenzamide], a half-maximal response (EC50) required 1.46 µM. Still for that read-out and setting: under `CC(C)(C)NC(=O)C(c1ccncc1)N(Cc1ccco1)C(=O)c1ccc(-c2ccccc2)[nH]1` (stereo unspecified) [N-[2-(tert-butylamino)-2-oxo-1-pyridin-4-ylethyl]-N-(furan-2-ylmethyl)-5-phenyl-1H-pyrrole-2-carboxamide] stands 19.1 µM. Still for that read-out and setting: as for `CC(C)(C)NC(=O)C(c1cccs1)N(CC1CCCO1)C(=O)c1ccc(-c2ccccc2)[nH]1` (stereo unspecified) [N-[2-(tert-butylamino)-2-oxo-1-thiophen-2-ylethyl]-N-(2-oxolanylmethyl)-5-phenyl-1H-pyrrole-2-carboxamide], the figure is 2.31 µM. In the case of `O=C(NN1C(=O)/C(=C/c2nc3ccccc3[nH]2)SC1=S)c1ccccc1Cl` [N-{5-[1-(1H-Benzoimidazol-2-yl)-meth-(Z)-ylidene]-4-oxo-2-thioxo-thiazolidin-3-yl}-2-chloro-benzamide], the EC50 is 0.128 µM. Same read-out and setting: under `c1ccc(-c2nnc(Sc3ncnc4c3cnn4-c3ccccc3)[nH]2)cc1` [SMR000019566] stands 6.74 µM; under `CCOC(=O)c1sc(Nc2nc3c(OC)cccc3s2)nc1C` [SMR000027213], 23.4 µM; under `O=C(CSc1nccc(=O)[nH]1)N1CCc2ccccc2C1` [SMR000124078], 17.1 µM. In the case of `CC(C)NC(=S)NNC1=c2cc(C(C)C)ccc2=NC1=O` [SMR000242097], the EC50 was determined as 5.86 µM. For `CC(=NNC(=S)Nc1c(C)cccc1C)c1cc2ccccc2o1` [SMR000260555], a half-maximal response (EC50) required 2.79 µM. `Cc1nc(SCc2ccc(F)cc2)c([N+](=O)[O-])[nH]1` [SMR000271028] returned an EC50 of 4.66 µM. The same measure, in the same setting: as for `Cc1ccc(C2=CSC3=NNC4(CCCCC4)NN23)cc1` [SMR000306481], the figure is 2.22 µM. Same read-out and setting: under `CN(C)S(=O)(=O)c1ccc(Cl)c(C(=O)Nc2nc3ccccc3[nH]2)c1` [SMR000370637] stands 4.52 µM.

`Oc1c(Br)cc(Br)cc1C=NNC(=S)N[C@H]1CC2C=CC1C2` (stereo partly specified) [SMR000455893] showed an EC50 of 12.7 µM.

The same assay, now with this note: inactive by the depositor's call.
In turn, `Sc1ccc2ccccc2n1` [MLS001006012] returned a concentration for a half-maximal effect (EC50) of 7.95 µM.

Consider `CNC(=O)C(=O)Nc1nc(C23CC4CC(CC(C4)C2)C3)cs1` [N'-[4-(1-adamantyl)-1,3-thiazol-2-yl]-N-methyl-ethanediamide], for which the response was half-maximal at 22.6 µM (EC50). In turn, `CCOc1ccc(C(C(=O)NC2CCCC2)N(CCCO)C(=O)c2ccc(-c3ccccc3)[nH]2)cc1` (stereo unspecified) [N-[2-(cyclopentylamino)-1-(4-ethoxyphenyl)-2-oxoethyl]-N-(3-hydroxypropyl)-5-phenyl-1H-pyrrole-2-carboxamide] had a concentration for a half-maximal effect (EC50) of 843 µM. Against the preceding compound, the EC50 is about 37-fold higher.

As for `O=c1c2ccccc2[nH]c(=S)n1CCN1CCC(=C(c2ccc(F)cc2)c2ccc(F)cc2)CC1` [SMR000058550], the response was half-maximal at 181 µM (EC50). With `O=C(/C=C/c1cccs1)Nc1scc(-c2ccccc2)c1C(=O)O` [SMR000364116], the midpoint of the response, the EC50, lay at 29 µM.
